According to US10851093B2, “Tyrosine kinase inhibitors” (Rigel Pharmaceuticals, Inc., priority 2018, dated 2020):

Tests used:
MerTK = target: T1, MerTK (Homo sapiens, UniProt Q12866); experiment: Phospho-AKT HTRF, HUVEC, Mer-XL, 8 pt (pAKT HTRF-HUVEC assay, anti-human MerTK-XL stimulation); type: cell-based; conditions: HUVEC cells, pAkt(Ser473) HTRF, anti-human MerTK-XL stimulation 1 ug/mL 10 minutes
T1 construct: Seed HUVECs (10K cells/well) in EBM-2 complete media; host or cells: HUVEC
T1 sequence (Q12866 21-999): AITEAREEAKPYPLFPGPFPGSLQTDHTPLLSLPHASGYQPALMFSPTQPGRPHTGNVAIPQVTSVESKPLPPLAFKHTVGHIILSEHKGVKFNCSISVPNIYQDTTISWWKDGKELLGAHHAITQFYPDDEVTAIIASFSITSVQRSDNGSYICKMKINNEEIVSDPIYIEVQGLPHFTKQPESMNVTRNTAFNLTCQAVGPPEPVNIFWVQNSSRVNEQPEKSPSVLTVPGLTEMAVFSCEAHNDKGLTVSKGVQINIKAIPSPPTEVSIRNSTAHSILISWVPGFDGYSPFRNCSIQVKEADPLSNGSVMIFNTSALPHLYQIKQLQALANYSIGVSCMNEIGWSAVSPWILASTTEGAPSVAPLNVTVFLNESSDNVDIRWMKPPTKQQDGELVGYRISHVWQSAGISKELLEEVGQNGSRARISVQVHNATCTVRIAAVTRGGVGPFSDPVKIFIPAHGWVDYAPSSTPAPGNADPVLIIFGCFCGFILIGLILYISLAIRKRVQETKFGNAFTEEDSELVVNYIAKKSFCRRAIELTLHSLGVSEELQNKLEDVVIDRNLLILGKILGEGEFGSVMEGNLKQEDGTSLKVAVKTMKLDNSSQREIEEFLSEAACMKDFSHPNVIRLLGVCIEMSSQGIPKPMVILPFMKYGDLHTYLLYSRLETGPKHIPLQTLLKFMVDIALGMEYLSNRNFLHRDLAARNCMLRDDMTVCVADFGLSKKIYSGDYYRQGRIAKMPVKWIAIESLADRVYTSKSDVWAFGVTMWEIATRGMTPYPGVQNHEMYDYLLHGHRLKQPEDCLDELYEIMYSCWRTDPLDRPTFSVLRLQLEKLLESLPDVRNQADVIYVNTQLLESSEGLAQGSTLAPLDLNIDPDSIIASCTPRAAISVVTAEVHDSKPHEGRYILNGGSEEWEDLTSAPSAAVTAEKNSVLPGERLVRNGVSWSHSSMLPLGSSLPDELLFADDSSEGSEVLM
Description: (§1) Example 13: PAKT HTRF-HUVEC Assay
(§2) Seed HUVECs (10K cells/well) in EBM-2 complete media (EBM-2 basal medium plus EGM-2 BulletKit supplements) overnight at 37° C., 5% CO2 in Costar 96-well white clear-bottom plates. Remove culture media and starve cells for 3-4 hours in 50 μL/well EBM-2 basal medium. Perform serial dilution of compounds in DMSO from 2.5 mM in 4-fold dilutions, and then dilute 1:125 in EBM-2 basal media. Mix 50 μL/well 2× compounds with 50 μL/well HUVECs in duplicate in Costar 96-well white clear-bottom plates. Incubate plates for 1 hour at 37° C., 5% CO2. Cross-link anti-human MerTK antibody to Biotin-SP-conjugated anti-mouse IgG antibody (1:1) to give final concentrations of 5 μg/mL of anti-human MerTK-XL. Stimulate HUVECs with 25 μL/well 5× anti-human MerTK-XL to give final concentrations of 1 ug/mL for 10 minutes at 37° C., 5% CO2. Completely remove media and lyse HUVECs with 40 uL:WELL per well of Cisbio HTRF 1× lysis buffer. Performed pAkt(Ser473) HTRF assay in ProxiPlate-384 Plus, white 384-shallow well microplate according to the vendor protocol and read plates with a SpectralMax Paradigm plate reader. Enter the HTRF values into Athena (Rigel) for curve fitting, EC50 calculation, and database storage.

Axl = target: T2, Axl (Homo sapiens, UniProt P30530); experiment: Phospho-AKT HTRF, HUVEC, Axl ABX-L, 8 pt; type: cell-based; conditions: HUVEC cells, pAkt(Ser473) HTRF, Axl ABX-L stimulation
T2 construct: Seed HUVECs (10K cells/well) in EBM-2 complete media; host or cells: HUVEC
T2 sequence (P30530 26-894): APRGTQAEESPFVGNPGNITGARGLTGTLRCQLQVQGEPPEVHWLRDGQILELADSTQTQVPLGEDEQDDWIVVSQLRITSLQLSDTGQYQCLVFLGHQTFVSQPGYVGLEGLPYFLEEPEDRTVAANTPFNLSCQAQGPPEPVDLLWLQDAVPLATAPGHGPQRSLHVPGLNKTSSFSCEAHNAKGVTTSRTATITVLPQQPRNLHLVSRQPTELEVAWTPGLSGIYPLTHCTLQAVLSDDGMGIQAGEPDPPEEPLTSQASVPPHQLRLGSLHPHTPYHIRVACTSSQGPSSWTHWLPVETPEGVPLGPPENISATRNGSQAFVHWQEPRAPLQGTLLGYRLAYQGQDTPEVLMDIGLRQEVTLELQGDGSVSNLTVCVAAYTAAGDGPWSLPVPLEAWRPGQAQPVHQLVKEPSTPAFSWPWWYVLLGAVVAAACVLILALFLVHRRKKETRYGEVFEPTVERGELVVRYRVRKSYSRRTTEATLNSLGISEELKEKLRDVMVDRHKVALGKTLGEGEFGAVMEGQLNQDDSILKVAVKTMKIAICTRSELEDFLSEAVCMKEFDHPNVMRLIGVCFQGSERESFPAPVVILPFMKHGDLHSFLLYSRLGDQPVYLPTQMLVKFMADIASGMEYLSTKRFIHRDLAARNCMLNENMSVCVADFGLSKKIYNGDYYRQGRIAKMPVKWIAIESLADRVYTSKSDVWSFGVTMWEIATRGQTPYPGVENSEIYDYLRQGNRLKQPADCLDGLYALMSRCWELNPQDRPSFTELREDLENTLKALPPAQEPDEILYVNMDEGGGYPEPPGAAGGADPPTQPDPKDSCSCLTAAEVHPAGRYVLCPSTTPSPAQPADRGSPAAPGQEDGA
Description: [The source words this procedure for another target and reports this target under the same test.] as §1, §2

Row | EC50 (MerTK) [nM] | EC50 (Axl) [nM] | Compound
1 | 9.4 | 110 | COc1cc2c(Oc3ccc(NC(=O)c4cccc(N5CC(F)(F)C5)n4)nc3)ccnc2cc1OCCCN1CCOCC1 [Compound 30, 6-(3,3-difluoroazetidin-1-yl)-N-(5-((6-methoxy-7-(3-morpholinopropoxy)quinolin-4-yl)oxy)pyridin-2-yl)picolinamide]
2 | 311 | 739 | COc1cc2c(Oc3ccc(NC(=O)c4cc(F)ccn4)nc3)ccnc2cc1OCCCN1CCOCC1 [Compound 31, 4-Fluoro-N-(5-((6-methoxy-7-(3-morpholinopropoxy)quinolin-4-yl)oxy)pyridin-2-yl)picolinamide]
3 | 162 | 462 | COc1cc2c(Oc3ccc(NC(=O)c4cc(C)ccn4)nc3)ccnc2cc1OCCCN1CCOCC1 [Compound 32, N-(5-((6-Methoxy-7-(3-morpholinopropoxy)quinolin-4-yl)oxy)pyridin-2-yl)-4-methylpicolinamide]
4 | 161 | 188 | COc1ccnc(C(=O)Nc2ccc(Oc3ccnc4cc(OCCCN5CCOCC5)c(OC)cc34)cn2)c1 [Compound 33, 4-Methoxy-N-(5-((6-methoxy-7-(3-morpholinopropoxy)quinolin-4-yl)oxy)pyridin-2-yl)picolinamide]
5 | 183 | 327 | COc1cc2c(Oc3ccc(NC(=O)c4cc(C(F)(F)F)ccn4)nc3)ccnc2cc1OCCCN1CCOCC1 [Compound 34, N-(5-((6-Methoxy-7-(3-morpholinopropoxy)quinolin-4-yl)oxy)pyridin-2-yl)-4-(trifluoromethyl)picolinamide]
6 | 5 | 3 | COc1cc2c(Oc3ccc(NC(=O)c4nc(-c5ccccc5)c5c(n4)C4CCN5CC4)nc3)ccnc2cc1OCCCN1CCOCC1 [Compound 35, N-(5-((6-methoxy-7-(3-morpholinopropoxy)quinolin-4-yl)oxy)pyridin-2-yl)-4-phenyl-7,8-dihydro-6H-5,8-ethanopyrido[3,2-d]pyrimidine-2-carboxamide]

The remaining lines, values behind:

Row | Compound | EC50 (MerTK) [nM] | EC50 (Axl) [nM]
7 | COc1cc2c(Oc3ccc(NC(=O)c4cc(N5CC6(CCOCC6)C5)ccn4)nc3)ccnc2cc1OCCCN1CCOCC1 [Compound 18, N-(5-((6-methoxy-7-(3-morpholinopropoxy)quinolin-4-yl)oxy)pyridin-2-yl)-4-(7-oxa-2-azaspiro[3.5]nonan-2-yl)picolinamide] | 98 | 114
8 | COc1cc2c(Oc3ccc(NC(=O)c4cc(N5CC6(COC6)C5)ccn4)nc3)ccnc2cc1OCCCN1CCOCC1 [Compound 19, N-(5-((6-methoxy-7-(3-morpholinopropoxy)quinolin-4-yl)oxy)pyridin-2-yl)-4-(2-oxa-6-azaspiro[3.3]heptan-6-yl)picolinamide] | 505 | 568
9 | COc1cc2c(Oc3ccc(NC(=O)c4cc(N5CC(F)(F)C5)ccn4)nc3)ccnc2cc1OCCCN1CCOCC1 [Compound 20, 4-(3,3-difluoroazetidin-1-yl)-N-(5-((6-methoxy-7-(3-morpholinopropoxy)quinolin-4-yl)oxy)pyridin-2-yl)picolinamide] | 209 | 163
10 | COc1cc2c(Oc3ccc(NC(=O)c4cc(N5CCC(F)(F)CC5)ccn4)nc3)ccnc2cc1OCCCN1CCOCC1 [Compound 21, 4-(4,4-difluoropiperidin-1-yl)-N-(5-((6-methoxy-7-(3-morpholinopropoxy)quinolin-4-yl)oxy)pyridin-2-yl)picolinamide] | 80.6 | 62.8
11 | COc1cc2c(Oc3ccc(NC(=O)c4cc(N5CCC(C)(C)CC5)ccn4)nc3)ccnc2cc1OCCCN1CCOCC1 [Compound 22, 4-(4,4-dimethylpiperidin-1-yl)-N-(5-((6-methoxy-7-(3-morpholinopropoxy)quinolin-4-yl)oxy)pyridin-2-yl)picolinamide] | 96 | 187
12 | COc1cc2c(Oc3ccc(NC(=O)c4cccc(N5CCCCC5)n4)nc3)ccnc2cc1OCCCN1CCOCC1 [Compound 23, N-(5-((6-methoxy-7-(3-morpholinopropoxy)quinolin-4-yl)oxy)pyridin-2-yl)-6-(piperidin-1-yl)picolinamide] | 13 | 66.8
13 | COc1cc2c(Oc3ccc(NC(=O)c4cccc(N5CCC(O)CC5)n4)nc3)ccnc2cc1OCCCN1CCOCC1 [Compound 24, 6-(4-hydroxypiperidin-1-yl)-N-(5-((6-methoxy-7-(3-morpholinopropoxy)quinolin-4-yl)oxy)pyridin-2-yl)picolinamide] | 654 | 742
14 | COc1cc2c(Oc3ccc(NC(=O)c4cccc(N5CCOCC5)n4)nc3)ccnc2cc1OCCCN1CCOCC1 [Compound 25, N-(5-((6-methoxy-7-(3-morpholinopropoxy)quinolin-4-yl)oxy)pyridin-2-yl)-6-morpholinopicolinamide] | 14.3 | 112
15 | COc1cc2c(Oc3ccc(NC(=O)c4cccc(N5CCCC5)n4)nc3)ccnc2cc1OCCCN1CCOCC1 [Compound 26, N-(5-((6-methoxy-7-(3-morpholinopropoxy)quinolin-4-yl)oxy)pyridin-2-yl)-6-(pyrrolidin-1-yl)picolinamide] | 7 | 32
16 | COc1cc2c(Oc3ccc(NC(=O)c4cccc(N5CCC(C)(C)CC5)n4)nc3)ccnc2cc1OCCCN1CCOCC1 [Compound 27, 6-(4,4-dimethylpiperidin-1-yl)-N-(5-((6-methoxy-7-(3-morpholinopropoxy)quinolin-4-yl)oxy)pyridin-2-yl)picolinamide] | 102 | 84.9
17 | COc1cc2c(Oc3ccc(NC(=O)c4cccc(N5CCC(F)(F)CC5)n4)nc3)ccnc2cc1OCCCN1CCOCC1 [Compound 28, 6-(4,4-difluoropiperidin-1-yl)-N-(5-((6-methoxy-7-(3-morpholinopropoxy)quinolin-4-yl)oxy)pyridin-2-yl)picolinamide] | 6.1 | 38.7
18 | CCOC1CCN(c2cccc(C(=O)Nc3ccc(Oc4ccnc5cc(OCCCN6CCOCC6)c(OC)cc45)cn3)n2)CC1 [Compound 29, 6-(4-ethoxypiperidin-1-yl)-N-(5-((6-methoxy-7-(3-morpholinopropoxy)quinolin-4-yl)oxy)pyridin-2-yl)picolinamide] | 690 | 651
